Test system: 242566-281-R-J2-PDC complex spheroid viability
Assay: Anticancer human tumor 242566-281-R-J2-PDC patient-derived pancreatic carcinoma cell line growth inhibition [RAS]
Conditions: for IC50: curve of first compound; for viability, T/C: stronger effect = lower value
Text: RAS pathway inhibitors in Combinations in Complex Spheroids
A high-throughput screen of multi-cell type tumor spheroids was designed to identify active combinations of RAS pathway inhibitors and targeted small molecules. Complex spheroids include a stromal component modeled by human endothelial cells (HUVEC) and fibroblasts modeled by human mesenchymal stem cells (MSCs). The concentration ranges selected for each drug and investigational agent were based upon clinically achievable concentrations if the clinical Cmax of the agent was known.
Compounds. The drugs and investigational agents: abemaciclib (NSC768073), cobimetinib (NSC768068), divarasib (GDC6063, NSC841802), docetaxel (NSC628503), GDC-1971 (RLY-1971, NSC841576), gemcitabine (NSC613327), inavolisib (NSC800729), ipatasertib (NSC767898), KB-0742 (NSC834161), MRTX-1133 (NSC836407), osimertinib (NSC779217), RMC-4630 (NSC839698), RMC-6236 (NSC851965), RMC-6291 (NSC852671), Ro-3306 (NSC812927), sapanisertib (NSC764658), SN-38 (NSC673596), staurosporine (NSC755774), SY5609 (NSC837396), and tovorafenib (DAY101, NSC766906), were obtained from the National Cancer Institute (NCI) Developmental Therapeutics Program Chemical Repository. The FDA-approved anticancer drug set is available from the NCI Developmental Therapeutics Program. […] The stock solutions were prepared in dimethyl sulfoxide (DMSO, Sigma-Aldrich, St. Louis, MO, cat. D2650) at 800-fold the tested concentration and stored at -70 degrees C prior to their use. All drugs and investigational agents were tested over a range starting from a high concentration at or near the clinical Cmax and decreasing in half-log increments. If the clinical Cmax for an agent had not been determined, the highest concentration tested was 10 microM.
Cell Culture. All cells were maintained in an incubator at 37 degrees C and 5% CO2 with 95% humidity. The PDC lines were cultured according to standard operating procedures established by the NCI PDMR. All PDCs were thawed and cultured in Matrigel-coated flasks prepared with a working solution of 1X Ham's F-12 nutrient mix, without supplementation (Invitrogen, Waltham, MA, cat. 11765054), 100 U/mL penicillin-streptomycin (Invitrogen, cat. 15140122), and 2.5% Matrigel (Corning Inc., Corning, NY, cat. 354248) for the first three passages. The 362531-283-R-J2-PDC and 782815-120-R-J1-PDC lines were cultured in 6C/Colon 1B media, which includes advanced DMEM/F-12 (Thermo Fisher Scientific, cat. 12634028), 10 mM HEPES (Thermo Fisher Scientific, cat. 15630080), 1X GlutaMAX supplement (Thermo Fisher Scientific, cat. 35050061), 0.1 mg/mL primocin (InvivoGen, San Diego, CA, cat. ant-pm-2), 10% defined fetal bovine serum, heat inactivated (HyClone Laboratories Inc., Logan, UT, cat. SH30070.03HI), 50% L-WRN conditioned media (ATCC, cat. CRL-3276), 1.25 mM N-Acetyl-L-cysteine (Sigma-Aldrich, cat. A9165), 10 mM nicotinamide (Sigma-Aldrich, cat. N0636), 1X B-27 supplement (Thermo Fisher Scientific, cat. 17504044), 1X N-2 supplement (Thermo Fisher Scientific, cat. 17502048), 50 ng/mL human EGF (Thermo Fisher Scientific, cat. PHG0311), and 10 microM Y-27632 dihydrochloride (Tocris Bioscience, cat. 1254). The K12877-001-R-J1-PDC line was cultured in 6I media, which includes all 6C/Colon 1B media plus 10 ng/mL human FGF-10 (PeproTech, cat. 100-26), 1 ng/mL human FGF-2 (PeproTech, cat. 100-18B), 1 µM prostaglandin E2 (Tocris Bioscience, cat. 2296), […] hydrocortisone (Sigma-Aldrich, cat. H4001), and […] bovine insulin (Sigma-Aldrich, cat. I6634). The K86415-001-R-J1-PDC line was cultured in 6D media, which includes all 6C/Colon 1B media components minus the L-WRN conditioned media. The 485176-168-R4-J1-PDC was cultured in PANC media, which includes all 6C/Colon 1B media plus 100 ng/mL human FGF-10 (PeproTech, cat. 100-26), 500 nM SB-431542 (Selleckchem, cat. S1067), and 10 nM gastrin (Tocris Bioscience, cat. 3006). […]
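Further: spheroids exposed to compound for 7 days before readout.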
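Wherever viability, T/C is given: 100% = DMSO vehicle control wells.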

`NC1c2ccccc2OC12CCN(c1cnc3c(N4CCCc5ncccc54)n[nH]c3n1)CC2` (configuration not stated) + C#Cc1c(F)ccc2cc(O)cc(-c3ncc4c(N5CC6CCC(C5)N6)nc(OCC56CCCN5CC(F)C6)nc4c3F)c12 was tested, and the IC50 (second compound 0.0316 µM) was 163 nM, the IC50 (second compound 0.1 µM) was 52.4 nM and the IC50 (second compound 0.316 µM) was under 31.6 nM. It also gave an IC50 (second compound 1 µM) of under 31.6 nM, an IC50 (second compound 3.16 µM) of under 31.6 nM and an IC50 (second compound 10 µM) of under 31.6 nM. For the same compound, the viability, T/C (second compound 0.0316 µM, first compound 0.0316 µM) was 72.3%, the viability, T/C (second compound 0.0316 µM, first compound 0.1 µM) was 56.2% and the viability, T/C (second compound 0.0316 µM, first compound 0.316 µM) was 41.6%. The viability, T/C (second compound 0.0316 µM, first compound 1 µM) was 33.1%, the viability, T/C (second compound 0.0316 µM, first compound 3.16 µM) was 29.7% and the viability, T/C (second compound 0.0316 µM, first compound 10 µM) was 22.9%. For the same compound, the viability, T/C (second compound 0.1 µM, first compound 0.0316 µM) was 52.3%, the viability, T/C (second compound 0.1 µM, first compound 0.1 µM) was 49% and the viability, T/C (second compound 0.1 µM, first compound 0.316 µM) was 36.8%. The viability, T/C (second compound 0.1 µM, first compound 1 µM) was 28.4%, the viability, T/C (second compound 0.1 µM, first compound 3.16 µM) was 34.1% and the viability, T/C (second compound 0.1 µM, first compound 10 µM) was 20.3%. For the same compound, the viability, T/C (second compound 0.316 µM, first compound 0.0316 µM) was 40.6%, the viability, T/C (second compound 0.316 µM, first compound 0.1 µM) was 43% and the viability, T/C (second compound 0.316 µM, first compound 0.316 µM) was 36.1%. For the same compound, the viability, T/C (second compound 0.316 µM, first compound 1 µM) was 35.7%, the viability, T/C (second compound 0.316 µM, first compound 3.16 µM) was 31.8% and the viability, T/C (second compound 0.316 µM, first compound 10 µM) was 17.3%. It also gave a viability, T/C (second compound 1 µM, first compound 0.0316 µM) of 32.2%, a viability, T/C (second compound 1 µM, first compound 0.1 µM) of 37.8% and a viability, T/C (second compound 1 µM, first compound 0.316 µM) of 36.3%. The viability, T/C (second compound 1 µM, first compound 1 µM) was 29%, the viability, T/C (second compound 1 µM, first compound 3.16 µM) was 34% and the viability, T/C (second compound 1 µM, first compound 10 µM) was 18.7%. It also gave a viability, T/C (second compound 3.16 µM, first compound 0.0316 µM) of 35.2%, a viability, T/C (second compound 3.16 µM, first compound 0.1 µM) of 38.1% and a viability, T/C (second compound 3.16 µM, first compound 0.316 µM) of 39.5%. The viability, T/C (second compound 3.16 µM, first compound 1 µM) was 33.7%, the viability, T/C (second compound 3.16 µM, first compound 3.16 µM) was 34.9% and the viability, T/C (second compound 3.16 µM, first compound 10 µM) was 16.2%. For the same compound, the viability, T/C (second compound 10 µM, first compound 0.0316 µM) was 38.1%, the viability, T/C (second compound 10 µM, first compound 0.1 µM) was 36.9% and the viability, T/C (second compound 10 µM, first compound 0.316 µM) was 39.6%. The viability, T/C (second compound 10 µM, first compound 1 µM) was 33%, the viability, T/C (second compound 10 µM, first compound 3.16 µM) was 35.5% and the viability, T/C (second compound 10 µM, first compound 10 µM) was 10.4%.

From PubChem BioAssay AID2060910 (Molecular Pharmacology Branch, DTP, NCI, 2025)
